{"source": "patent US20160363588A1", "about": "“URINE SAMPLE ANALYSIS METHOD AND REAGENT KIT FOR URINE SAMPLE ANALYSIS” (SYSMEX CORPORATION, priority 2014, published 2016)", "key": {"Escherichia coli": {"system": "Escherichia coli", "details": "E. coli, 1000 ppm acetic acid aqueous solution", "method": "(§1) In this example, the antimicrobial activity of acetic acid against various bacteria was evaluated. As a control, a saline was used. The antimicrobial activity was evaluated on the basis of the number of colonies of the bacterium on the solid culture medium.\n(§2) To each of an acetic acid aqueous solution and a saline, various species of bacteria were added to a concentration of 1×10^5 cells/mL to obtain bacterial suspensions. Each 100 μL was taken from the obtained bacterial suspensions, and these were taken as samples at day 0 of culture. The remaining bacterial suspensions were cultured for 7 days at 37° C. for E. coli and S. aureus and at 25° C. for P. aeruginosa, and each 100 μL was taken from the obtained bacterial suspensions as samples at day 7 of culture. Each 100 μL of the sample was coated on a heart infusion agar culture medium, and cultured at the respective culture temperatures. The culture time was 20 hours for E. coli, 24 hours for S. aureus and 48 hours for P. aeruginosa. After culturing, the number of colonies on the agar culture medium was counted, and the bacterial number (CFU/mL) was calculated."}, "Pseudomonas aeruginosa": {"system": "Pseudomonas aeruginosa", "details": "P. aeruginosa, 1000 ppm acetic acid aqueous solution", "method": "as §1, §2"}, "Staphylococcus aureus": {"system": "Staphylococcus aureus", "details": "S. aureus, 1000 ppm acetic acid aqueous solution", "method": "as §1, §2"}}}
{"smiles": "CC(=O)O", "note": "[acetic acid]", "values": [{"measurement": "Bacterial number At day 7", "setting": "Escherichia coli; cultured 7 days at 37° C.", "result": 0, "unit": "CFU/mL"}, {"measurement": "proliferation of bacteria in the solution", "setting": "Escherichia coli; culturing for 7 days", "result": "cannot be proliferated"}, {"measurement": "Bacterial number At day 0", "setting": "Escherichia coli; day 0 of culture", "result": 1000, "unit": "CFU/mL"}, {"measurement": "Bacterial number At day 7", "setting": "Pseudomonas aeruginosa; cultured 7 days at 25° C.", "result": 0, "unit": "CFU/mL"}, {"measurement": "proliferation of bacteria in the solution", "setting": "Pseudomonas aeruginosa; culturing for 7 days", "result": "cannot be proliferated"}, {"measurement": "Bacterial number At day 0", "setting": "Pseudomonas aeruginosa; day 0 of culture", "result": 1000, "unit": "CFU/mL"}, {"measurement": "Bacterial number At day 7", "setting": "Staphylococcus aureus; cultured 7 days at 37° C.", "result": 0, "unit": "CFU/mL"}, {"measurement": "proliferation of bacteria in the solution", "setting": "Staphylococcus aureus; culturing for 7 days", "result": "cannot be proliferated"}, {"measurement": "Bacterial number At day 0", "setting": "Staphylococcus aureus; day 0 of culture", "result": 1000, "unit": "CFU/mL"}]}
